These are literature values, as cited in patent publication US20220333169A1, “Polygenic Score for Cardiac Heart Failure” (Henry Ford Health System, priority 2019, published 2022).

In the data set the test system is heart failure patients. Particulars: one randomized clinical trial.

As to `COc1ccccc1OCCNCC(O)COc1cccc2[nH]c3ccccc3c12` (stereo not shown) [carvedilol], the “95% confidence interval for change in left ventricular ejection fraction (LVEF)” value is −11.1 to +32.9.
